Several values for one entry are separate records, joined by “and”; a condition that tells them apart may be missing. Equal values may be shown once. Entries after “also recorded” stand apart in the source; their conditions may differ. Read-outs that look alike come from different tables or passages of the source.
Legend:
arNOX [1] = system: T1, arNOX; test: arNOX inhibition assay (superoxide-dependent reduction of ferric cytochrome c); type: biochemical, human; details: read-out: EC50 (dose which causes 50% inhibition of arNOX activity)
T1 construct: other: infusion; human saliva

arNOX [2] = test: as above; type: biochemical, human
Method: Reduction of ferric cytochrome c by superoxide was employed as a standard measure of superoxide formation (Mayo, L. A. and Curnutte, J., 1990, Meth. Enzyme. 186:567-575; Butler, J. et al., 1982, J. Biol. Chem. 257:10747-10750). This is a widely accepted method when coupled to superoxide dismutase inhibition for the measurement of superoxide generation. The assay consists of 150 μl buffy coats in PBSG buffer (8.06 g NaCl, 0.2 g KCl, 0.18 g Na2HPO4, 0.13 g CaCl2, 0.1. g MgCl2, 1.35 g glucose dissolved in 1000 ml deionized water, adjusted to pH 7.4, filtered and stored at 4° C.). Rates were determined using an SLM Aminco DW-2000 spectrophotometer (Milton Roy, Rochester, N.Y., USA) in the dual wave length mode of operation with continuous measurements over 1 min every 1.5 min. After 45 min, test compounds were added and the reaction was continued for an additional 45 min. After 45 min, a millimolar extinction coefficient of 19.1 cm^−1 was used for reduced ferricytochrome c. Extracts were made of the potentially inhibitory compounds in water unless otherwise indicated.
Infusions are prepared by adding 125 mg material (for herbs or spices, dry weight) to 1 ml boiling water. The solutions are allowed to cool slowly and steep at room temperature overnight. Pure compounds (gallic acid, apigenin, derivatives of benzoic acid) are prepared as 100 mM stock solutions in water, ethanol or DMSO, depending on solubility in a particular liquid.
Tinctures are prepared by adding […] of material (fresh weight) to 1 ml ethanol and allowed to steep overnight (or from about 3-30 hours, about 6-24, or about 12-20 or about 18 hours). Insoluble and particulate material is allowed to sediment, and the soluble material is decanted. Tinctures, infusions and stock solutions of pure compounds are tested undiluted, diluted 1:10, 1:100 and 1:1000 to determine EC50 (the dose which causes 50% inhibition of arNOX activity). For tinctures or infusions, aliquots of 60 μl are added to 2.5 ml arNOX assay. For stock solutions (undiluted or diluted), aliquots of 2.5 μl are added to 2.5 ml arNOX assay. For example, addition of an undiluted 100 mM stock solution results in a final concentration of 100 μM in the assay.

arNOX [3] = details: Morré et al., 2008, BioFactors 32:231-235; cited from earlier work
Solubility in water = type: physicochemical
salivary arNOX = test: Kinetics of salivary arNOX inhibition after oral administration to a volunteer; type: in vivo, human; details: single oral dose at time 0 h, subject
Method: To determine the kinetics of arNOX inhibition, capsules containing 350 to 700 mg of selected seasonings and active ingredients were administered orally to a volunteer and the arNOX activity of collected saliva was analyzed serially. arNOX activity of saliva and sera correlate closely (FIG. 14) such that salivary arNOX is reflective of the inhibition of serum arNOX.

Cc1cc(C)cc(C(=O)O)c1 [3,5-dimethylbenzoic acid]
EC50 (arNOX [1]): 0.2 µM
arNOX inhibition (in words) (arNOX [2]): most inhibitory

COC1=C(OC)C(=O)C(C/C=C(\C)CC/C=C(\C)CC/C=C(\C)CC/C=C(\C)CC/C=C(\C)CC/C=C(\C)CC/C=C(\C)CCC=C(C)C)=C(C)C1=O [CoQ8]
inhibition of arNOX activity of aging cells (arNOX [3]): inhibited

COC1=C(OC)C(=O)C(C/C=C(\C)CC/C=C(\C)CC/C=C(\C)CC/C=C(\C)CC/C=C(\C)CC/C=C(\C)CC/C=C(\C)CC/C=C(\C)CCC=C(C)C)=C(C)C1=O [CoQ9]
inhibition of arNOX activity of aging cells (arNOX [3]): inhibited

COC1=C(OC)C(=O)C(C/C=C(\C)CC/C=C(\C)CC/C=C(\C)CC/C=C(\C)CC/C=C(\C)CC/C=C(\C)CC/C=C(\C)CC/C=C(\C)CC/C=C(\C)CCC=C(C)C)=C(C)C1=O [CoQ10]
inhibition of arNOX activity of aging cells (arNOX [3]): inhibited

Oc1ncnc2[nH]ncc12 [allopuranol, reference compound]
arNOX inhibition (in words) (arNOX [2]): inhibited arNOX to varying degrees

O=c1cc(-c2ccc(O)cc2)oc2cc(O)cc(O)c12 [apigenin aglycone, apigenin]
inhibition of arNOX activity at 10 μM (arNOX [2]; 10 μM, supplied as DMSO solution): inhibited arNOX activity
water solubility (Solubility in water): insoluble in water
water solubility (Solubility in water; listed as apigenin): low water solubility

O=C(O)c1cc(O)c(O)c(O)c1 [gallic acid, 3,4,5-trihydroxybenzoic acid]
maximum inhibition of salivary arNOX (salivary arNOX): 84%
time of maximum inhibition of salivary arNOX (salivary arNOX): 8 h
arNOX inhibition (in words) (arNOX [2]): active
effective final concentration (arNOX [2]): 0.14 μM and 10 ng/mL

O[C@H]1[C@H](O)[C@@H](O)[C@H](O)[C@@H](O)[C@H]1O [inositol]
arNOX inhibition (in words) (arNOX [2]): inhibited arNOX to varying degrees

O=P(O)(O)O[C@H]1[C@H](OP(=O)(O)O)[C@@H](OP(=O)(O)O)[C@H](OP(=O)(O)O)[C@@H](OP(=O)(O)O)[C@H]1OP(=O)(O)O [phytic acid]
arNOX inhibition (in words) (arNOX [2]): inhibited arNOX to varying degrees

OCc1ccccc1O[C@@H]1O[C@H](CO)[C@@H](O)[C@H](O)[C@H]1O [salicin, reference compound]
arNOX inhibition (in words) (arNOX [2]): inhibited arNOX to varying degrees
type of arNOX inhibition from kinetic data (arNOX [2]; FIG. 1): competitive inhibitor

(±)-catechin
arNOX inhibition (in words) (arNOX [2]): inhibits arNOX; also recorded: potent arNOX inhibitor
effective final concentration (arNOX [2]): 100 μM and 300 ng/mL
